Assay results as given in US20240306670A1, “BERBERINE ALKALOIDS IN THE PREVENTION AND/OR TREATMENT OF INTESTINAL DISEASE” (priority 2017, published 2024).
Values joined by “and” are separate entries in the source; they are usually repeats but may differ in a detail not shown here. Identical values can stand only once. Like-named read-outs stand apart in the source and are kept apart here.

What was measured:
[1] = system: Clostridium Perfringens (type A strain EHE-NE36) after Eimeria oocyst challenge; details: for Median Duodenal Lesion Score (0 absent to 4 severe) / Median Ilial Lesion Score (0 absent to 4 severe) / Median Jejunal Lesion Score (0 absent to 4 severe): 16 days
[2] = General safety in broilers reared to market weight by histology (Example 8); details: histology D42
[3] = in vivo
[4] = system: Eimeria species (mainly E. acervulina); details: in vivo
[5] = NE challenge, IVP 0.1 g/L in-water, groups 7, 8
[6] = NE challenge, IVP 0.20 g/kg in-feed, group 11
[7] = NE challenge, IVP 1.0 g/L in-water, groups 9, 10
[8] = NE challenge, IVP 2.0 g/kg in-feed, group 12
[9] = Necrotic Enteritis, IVP feed 0.2 g/kg, group 11, isolator 9, 11 birds
[10] = Necrotic Enteritis, IVP feed 2 g/kg, group 12, isolator 3, 15 birds
[11] = Necrotic Enteritis, IVP water 0.1 g/L, 'Mean' line of groups 7 and 8, 28 birds
[12] = Necrotic Enteritis, IVP water 0.1 g/L, group 7, isolator 6, 13 birds
[13] = Necrotic Enteritis, IVP water 0.1 g/L, group 8, isolator 11, 15 birds
[14] = Necrotic Enteritis, IVP water 1.0 g/L, 'Mean' line of groups 9 and 10, 25 birds
[15] = Necrotic Enteritis, IVP water 1.0 g/L, group 9, isolator 2, 9 birds
[16] = Necrotic Enteritis, IVP water 1.0 g/L, group 10, isolator 8, 16 birds
[17] = Nil Challenge, IVP water 1.0 g/L, 'Mean' line of groups 3 and 4, 25 birds
[18] = Nil Challenge, IVP water 1.0 g/L, group 3, isolator 10, 10 birds
[19] = Nil Challenge, IVP water 1.0 g/L, group 4, isolator 4, 15 birds
[20] = Nil challenge, IVP 1.0 g/L in-water, groups 3, 4

## COc1ccc2cc3[n+](cc2c1OC)CCc1cc2c(cc1-3)OCO2 [IRP001 chloride, berberine chloride]
[1]; [5]
  Median Duodenal Lesion Score (0 absent to 4 severe): 4
  Median Ilial Lesion Score (0 absent to 4 severe): 4
  Median Jejunal Lesion Score (0 absent to 4 severe): 4
[1]; [6]
  Median Duodenal Lesion Score (0 absent to 4 severe): 4
  Median Ilial Lesion Score (0 absent to 4 severe): 4
  Median Jejunal Lesion Score (0 absent to 4 severe): 4
[1]; [7]
  Median Duodenal Lesion Score (0 absent to 4 severe): 1
  Median Ilial Lesion Score (0 absent to 4 severe): 1
  Median Jejunal Lesion Score (0 absent to 4 severe): 1
[1]; [8]
  Median Duodenal Lesion Score (0 absent to 4 severe): 1
  Median Ilial Lesion Score (0 absent to 4 severe): 1
  Median Jejunal Lesion Score (0 absent to 4 severe): 1
[1]; [9]
  Mortalities prior to autopsy: 9
  Mortality %: 82%
[1]; [10]
  Mortalities prior to autopsy: 2
  Mortality %: 13%
[1]; [11]
  Mortalities prior to autopsy: 22
  Mortality %: 79%
[1]; [12]
  Mortalities prior to autopsy: 12
  Mortality %: 92%
[1]; [13]
  Mortalities prior to autopsy: 10
  Mortality %: 67%
[1]; [14]
  Mortalities prior to autopsy: 0
  Mortality %: 0%
[1]; [15]
  Mortalities prior to autopsy: 0
  Mortality %: 0%
[1]; [16]
  Mortalities prior to autopsy: 0
  Mortality %: 0%
[1]; [17]
  Mortalities prior to autopsy: 0
  Mortality %: 0%
[1]; [18]
  Mortalities prior to autopsy: 0
  Mortality %: 0%
[1]; [19]
  Mortalities prior to autopsy: 0
  Mortality %: 0%
[1]; [20]
  Median Duodenal Lesion Score (0 absent to 4 severe): 0
  Median Ilial Lesion Score (0 absent to 4 severe): 0
  Median Jejunal Lesion Score (0 absent to 4 severe): 0
[2]
  gastrointestinal tract (GIT) histologic lesions: within normal limits
  liver histologic lesions: within normal limits
[3]
  Cumulative Pathology and Enteritis scores: equal or lower than the control
[4]
  FCR 0-14 corrected for mortality: 1.120 and 1.125 and 1.103
  FCR 0-21 corrected for mortality: 1.285 and 1.256 and 1.250
  FCR 0-28 corrected for mortality: 1.470 and 1.467 and 1.486
  Feed per bird over days 0-14: 485^B g/bird and 513^A g/bird and 512^A g/bird
  Feed per bird over days 0-21: 1186^B g/bird and 1227^AB g/bird and 1240^AB g/bird
  Feed per bird over days 0-28: 1957 g/bird and 2037 g/bird and 2049 g/bird
  Feed per bird over days 0-42: 4121 g/bird and 4247 g/bird and 4305 g/bird
  Mean Weight Gain over days 0-7: 113 gm and 121 gm and 119 gm
  Mean Weight Gain over days 8-14: 320^C gm and 334^A gm and 343^A gm
  Mean Weight Gain over days 15-21: 491^B gm and 517^A gm and 528^A gm
  Mean Weight Gain over days 22-28: 593 gm and 618 gm and 600 gm
  Mean Weight Gain over days 29-42: 1324 gm and 1341 gm and 1436 gm
  Mean live weight at 0 days: 41 gm
  Mean live weight at 7 days: 154 gm and 163 gm and 160 gm
  Mean live weight at 14 days: 432^B gm and 456^A gm and 461^A gm
  Mean live weight at 21 days: 973^C gm and 972^AB gm and 989^A gm
  Mean live weight at 28 days: 1517^B gm and 1590^A gm
  Mean live weight at 42 days: 2840^B gm and 2932^A gm and 3026^A gm
  appearance of bird health: always appeared healthy
  droppings: moist yellow-ish droppings
  early growth rate: significantly lower than all other groups
  growth rate: statistically similar to the control group
  lesion scores in duodenum, jejunum and total gut: highest lesion scores
  reduction of coccidial lesions: not by the lower dose rates
  total intestinal health scores (Tierlynck et al.): approached significance
  translucency score upper intestine and undigested feed particles in rectum: reduced translucency score in the upper intestine and the presence of undigested feed particles in the rectum
